Test results from the OligoGym collection.
Only the 19 paired bases of each siRNA are shown; overhangs and chemistry are not given here.

molecular target: LMNA; assay: five studies, different assays; details: siRNA
Also: test concentration or dose not given here.

First: sense UGCCAGGCAGUCUGCUGAG / antisense CUCAGCAGACUGCCUGGCA
Second: sense UAACCCUUUGGUUUUUUUC / antisense GAAAAAAACCAAAGGGUUA
The target inhibition of the first is higher: 81% for the first, 52% for the second.

First: sense AAGAAGGAGCUGGAGAAGA / antisense UCUUCUCCAGCUCCUUCUU
Second: sense AGAAGGAGCUGGAGAAGAC / antisense GUCUUCUCCAGCUCCUUCU
The target inhibition of the first is lower: 87% for the first, 96% for the second.

Going from “sense GGCAUCUGCCAGCGGCUCA / antisense UGAGCCGCUGGCAGAUGCC” to “sense CAAGUCCAAUGAGGACCAG / antisense CUGGUCCUCAUUGGACUUG”, the target inhibition falls from 92% to 79%.

Going from “sense GGACCUGCAGGAGCUCAAU / antisense AUUGAGCUCCUGCAGGUCC” to “sense UGCAGCAGCAGCUGGACGA / antisense UCGUCCAGCUGCUGCUGCA”, the target inhibition rises from 45% to 92%.

Compared with “sense GGAGCUGGAGAAGACUUAU / antisense AUAAGUCUUCUCCAGCUCC”, “sense GCCUGCGUACGGCUCUCAU / antisense AUGAGAGCCGUACGCAGGC” is higher in target inhibition: 95% for the first, 97% for the second.

Going from “sense GAGGUGGUCAGCCGCGAGG / antisense CCUCGCGGCUGACCACCUC” to “sense CCCGCUCCUACCUCCUGGG / antisense CCCAGGAGGUAGGAGCGGG”, the target inhibition falls from 80% to 71%.

Going from “sense GAGAAGACUUAUUCUGCCA / antisense UGGCAGAAUAAGUCUUCUC” to “sense UGGAGAAGACUUAUUCUGC / antisense GCAGAAUAAGUCUUCUCCA”, the target inhibition falls from 97% to 81%.

Substance “sense GCAGUAUAAGAAGGAGCUG / antisense CAGCUCCUUCUUAUACUGC” has a target inhibition of 82%.

molecular target: PPIB; assay: five studies, different assays; details: siRNA

Going from “sense GUGGAUAAUUUUGUGGCCU / antisense AGGCCACAAAAUUAUCCAC” to “sense AGCAAAUUCCAUCGUGUAA / antisense UUACACGAUGGAAUUUGCU”, the target inhibition rises from 55% to 86.4%.

Going from “sense GCACAGGAGGAAAGAGCAU / antisense AUGCUCUUUCCUCCUGUGC” to “sense UUCCAUCGUGUAAUCAAGG / antisense CCUUGAUUACACGAUGGAA”, the target inhibition falls from 90.8% to 45.9%.

First: sense ACAAAAACAGCAAAUUCCA / antisense UGGAAUUUGCUGUUUUUGU
Second: sense CUUCAAACUGAAGCACUAC / antisense GUAGUGCUUCAGUUUGAAG
The target inhibition of the first is higher: 78.5% for the first, 73.1% for the second.

Going from “sense GCGCUUCCCCGAUGAGAAC / antisense GUUCUCAUCGGGGAAGCGC” to “sense UCAUGAUCCAGGGCGGAGA / antisense UCUCCGCCCUGGAUCAUGA”, the target inhibition rises from 92.7% to 92.8%.

Going from “sense UGGCACAGGAGGAAAGAGC / antisense GCUCUUUCCUCCUGUGCCA” to “sense GUGGCCUUAGCUACAGGAG / antisense CUCCUGUAGCUAAGGCCAC”, the target inhibition rises from 55.9% to 60.3%.

Compared with “sense UUCACCAGGGGAGAUGGCA / antisense UGCCAUCUCCCCUGGUGAA”, “sense AUUUGGCUACAAAAACAGC / antisense GCUGUUUUUGUAGCCAAAU” is lower in target inhibition: 17.6% for the first, 13.8% for the second.

Going from “sense UCCAAAAACAGUGGAUAAU / antisense AUUAUCCACUGUUUUUGGA” to “sense UACGGUGAGCGCUUCCCCG / antisense CGGGGAAGCGCUCACCGUA”, the target inhibition falls from 75.3% to -9.9%.

First: sense GGAAAGAGCAUCUACGGUG / antisense CACCGUAGAUGCUCUUUCC
Second: sense AAAGAGCAUCUACGGUGAG / antisense CUCACCGUAGAUGCUCUUU
The target inhibition of the first is higher: 93.3% for the first, 50.7% for the second.

First: sense ACAGCAAAUUCCAUCGUGU / antisense ACACGAUGGAAUUUGCUGU
Second: sense GGAGACUUCACCAGGGGAG / antisense CUCCCCUGGUGAAGUCUCC
The target inhibition of the first is higher: 91.9% for the first, 80.9% for the second.

Going from “sense GUGAGCGCUUCCCCGAUGA / antisense UCAUCGGGGAAGCGCUCAC” to “sense GAGAUGGCACAGGAGGAAA / antisense UUUCCUCCUGUGCCAUCUC”, the target inhibition falls from 83.9% to 70.5%.

Compared with “sense UUUUGUGGCCUUAGCUACA / antisense UGUAGCUAAGGCCACAAAA”, “sense AAACAGCAAAUUCCAUCGU / antisense ACGAUGGAAUUUGCUGUUU” is lower in target inhibition: 52% for the first, 7.3% for the second.

Going from “sense UCCAGGGCGGAGACUUCAC / antisense GUGAAGUCUCCGCCCUGGA” to “sense CCAUCGUGUAAUCAAGGAC / antisense GUCCUUGAUUACACGAUGG”, the target inhibition rises from 41.8% to 87.4%.

First: sense GACUUCAUGAUCCAGGGCG / antisense CGCCCUGGAUCAUGAAGUC
Second: sense AGGAGAGAAAGGAUUUGGC / antisense GCCAAAUCCUUUCUCUCCU
The target inhibition of the first is lower: 51.2% for the first, 88.4% for the second.

Going from “sense UUCCCCGAUGAGAACUUCA / antisense UGAAGUUCUCAUCGGGGAA” to “sense CAGUGGAUAAUUUUGUGGC / antisense GCCACAAAAUUAUCCACUG”, the target inhibition falls from 83.8% to 39.7%.

Compared with “sense GAGCGCUUCCCCGAUGAGA / antisense UCUCAUCGGGGAAGCGCUC”, “sense AAAACAGUGGAUAAUUUUG / antisense CAAAAUUAUCCACUGUUUU” is lower in target inhibition: 86.5% for the first, 49.5% for the second.

Going from “sense GGCUACAAAAACAGCAAAU / antisense AUUUGCUGUUUUUGUAGCC” to “sense UUAGCUACAGGAGAGAAAG / antisense CUUUCUCUCCUGUAGCUAA”, the target inhibition falls from 77.4% to 30.7%.

First: sense GAGAGAAAGGAUUUGGCUA / antisense UAGCCAAAUCCUUUCUCUC
Second: sense GCUUCCCCGAUGAGAACUU / antisense AAGUUCUCAUCGGGGAAGC
The target inhibition of the first is higher: 93.4% for the first, 67.8% for the second.

First: sense CCGAUGAGAACUUCAAACU / antisense AGUUUGAAGUUCUCAUCGG
Second: sense AUCGUGUAAUCAAGGACUU / antisense AAGUCCUUGAUUACACGAU
The target inhibition of the first is lower: 85.1% for the first, 86.7% for the second.

Going from “sense CCAGGGGAGAUGGCACAGG / antisense CCUGUGCCAUCUCCCCUGG” to “sense CAAAAACAGUGGAUAAUUU / antisense AAAUUAUCCACUGUUUUUG”, the target inhibition rises from 21.4% to 90.2%.

First: sense GGGCGGAGACUUCACCAGG / antisense CCUGGUGAAGUCUCCGCCC
Second: sense AAAAACAGCAAAUUCCAUC / antisense GAUGGAAUUUGCUGUUUUU
The target inhibition of the first is higher: 89% for the first, 7.6% for the second.

Compared with “sense CUACAGGAGAGAAAGGAUU / antisense AAUCCUUUCUCUCCUGUAG”, “sense GAUGAGAACUUCAAACUGA / antisense UCAGUUUGAAGUUCUCAUC” is lower in target inhibition: 93.9% for the first, 89.7% for the second.

First: sense GAUCCAGGGCGGAGACUUC / antisense GAAGUCUCCGCCCUGGAUC
Second: sense UCUACGGUGAGCGCUUCCC / antisense GGGAAGCGCUCACCGUAGA
The target inhibition of the first is higher: 92.7% for the first, 2.8% for the second.

Going from “sense AGGACUUCAUGAUCCAGGG / antisense CCCUGGAUCAUGAAGUCCU” to “sense UGUAAUCAAGGACUUCAUG / antisense CAUGAAGUCCUUGAUUACA”, the target inhibition falls from 82.9% to 63.9%.

Going from “sense GGCCUUAGCUACAGGAGAG / antisense CUCUCCUGUAGCUAAGGCC” to “sense CCCCGAUGAGAACUUCAAA / antisense UUUGAAGUUCUCAUCGGGG”, the target inhibition falls from 94.6% to 84.7%.

“sense GGAUUUGGCUACAAAAACA / antisense UGUUUUUGUAGCCAAAUCC” gave a target inhibition of 83.5%.
